Data taken from patent US20030219866A1, “Stem cell-like cells” (priority 2000, published 2003).

Key:
Type in all cases: cell-based
[1] = tested on: TSA treated cells; assay: UTF1 expression and TGF-beta/activin/BMP responsiveness of TSA treated cells
[2] = tested on: human Mesenchymal Stem Cells; assay: OCT4 expression after TSA treatment in hMSC (RT-PCR); set-up: key to OCT4 expression: +/− expression detectable; (+) clear expression; (++ strong expression); settings: for OCT4 expression: hMSC, RT-PCR
Method: (§1) (a) RNA isolation and eDNA synthesis. At the time of harvest, medium was aspirated and cells were lyzed using Ultraspec™ (Biotecx) or Trizol® (Gibco BRL). RNA was isolated according to the instructions of the suppliers. RNA concentration was determined by measuring OD260 and equal amounts of RNA of the indicated cell lines were subjected to conversion into cDNA. RNA was reversed transcribed using random primers and 15 units M-MuLV (Promega) in a reaction mixture containing 4 μl 25 mM MgCl2, 2 μl of each of the four dNTPs at 10 mM and 0.5 μl RNasin (Promega) in a total volume of 20 μl. RNA and 0.5 μg random hexamers were pre-incubated for 10 minutes at 55-60°. Mixtures were incubated at 37° C. for 1 hour.
(§2) (b) PCR reactions. PCR was were performed using 2 μl cDNA, 2.5 μl 10× SuperTaq buffer (without magnesium), 0.25 μl forward primer, 0.25 μl reverse primer, 0.50 μl 10 mM dNTPs, 1.25 Units of SuperTaq polymerase. In the case of β2-microglobulin 1.5 mM MgCl2 was added to the reaction mixture. For mouse UTF1 PCR, normal Taq polymerase (Roche) was used with a buffer containing MgCl2. The conditions for the PCR reaction were: 5 minutes 94° C.; 28 cycles of 30 seconds 94° C., 30 seconds 60° C. and 30 seconds 72° C.; 10 minutes 72° C., using a PTC-200, Peltier Thermal cycler. PCR-fragments were run on a 2% agarose gel and visualized by ethidium bromide staining.
(§3) HDAC activity is inhibited by Trichostatin A (TSA). Human mesenchymal stem cells and mouse and human neuronal progenitor cells were treated by TSA at concentration of 10 and 50 ng/ml. After 24 and 48 hours, OCT4 expression was analyzed by RT-PCR.

[3] = tested on: human Neural Progenitor Cells; assay: OCT4 expression after TSA treatment in hNPC (RT-PCR); set-up: key to OCT4 expression: +/− expression detectable; (+) clear expression; (++ strong expression); settings: for OCT4 expression: hNPC, RT-PCR
Method: as §1, §2, §3

[4] = tested on: mouse Neural Progenitor Cells; assay: OCT4 expression after TSA treatment in mNPC (RT-PCR); set-up: key to OCT4 expression: +/− expression detectable; (+) clear expression; (++ strong expression); settings: for OCT4 expression: mNPC (eGFP/bcl2), RT-PCR
Method: as §1, §2, §3

CC(/C=C/C(=O)NO)=C\[C@@H](C)C(=O)c1ccc(N(C)C)cc1 [TSA, Trichostatin A]
TGF-beta, activin and BMP responsiveness [1]: reduction | expression of UTF1 [1]: increased | OCT4 expression ([2]; TSA 10 ng/ml, 24 hours): + | OCT4 expression ([2]; TSA 10 ng/ml, 48 hours): ++ | OCT4 expression ([2]; TSA 50 ng/ml, 24 hours): + | OCT4 expression ([2]; TSA 50 ng/ml, 48 hours): ++ | SSEA4 expression ([2]; human MSC, TSA treated, in parallel with upregulation of OCT4): increased | expression of OCT4 ([2]; human MSC, TSA treatment for 24 to 48 hours): enhances | OCT4 expression ([3]; TSA 10 ng/ml, 24 hours): + | OCT4 expression ([3]; TSA 10 ng/ml, 48 hours): ++ | OCT4 expression ([3]; TSA 50 ng/ml, 24 hours): + | SSEA4 expression ([3]; human Neural Progenitor Cells, TSA treated, in parallel with upregulation of OCT4): increased | expression of OCT4 ([3]; human Neural Progenitor Cells, TSA treatment for 24 to 48 hours): enhances | OCT4 expression ([4]; TSA 10 ng/ml, 24 hours): + | OCT4 expression ([4]; TSA 10 ng/ml, 48 hours): ++ | OCT4 expression ([4]; TSA 50 ng/ml, 24 hours): + | expression of OCT4 ([4]; mouse neural progenitor cells, TSA treatment for 24 to 48 hours): enhances
